{"source": "patent US12473304B2", "about": "“Heterocyclic PAD4 inhibitors” (BRISTOL-MYERS SQUIBB COMPANY, priority 2020, dated 2025)", "note": "pIC50: −log10 of the molar value."}
{"target": "human PAD4 (hPAD4) (Homo sapiens (Human), UniProt Q9UM07)", "sequence (Q9UM07 whole entry)": "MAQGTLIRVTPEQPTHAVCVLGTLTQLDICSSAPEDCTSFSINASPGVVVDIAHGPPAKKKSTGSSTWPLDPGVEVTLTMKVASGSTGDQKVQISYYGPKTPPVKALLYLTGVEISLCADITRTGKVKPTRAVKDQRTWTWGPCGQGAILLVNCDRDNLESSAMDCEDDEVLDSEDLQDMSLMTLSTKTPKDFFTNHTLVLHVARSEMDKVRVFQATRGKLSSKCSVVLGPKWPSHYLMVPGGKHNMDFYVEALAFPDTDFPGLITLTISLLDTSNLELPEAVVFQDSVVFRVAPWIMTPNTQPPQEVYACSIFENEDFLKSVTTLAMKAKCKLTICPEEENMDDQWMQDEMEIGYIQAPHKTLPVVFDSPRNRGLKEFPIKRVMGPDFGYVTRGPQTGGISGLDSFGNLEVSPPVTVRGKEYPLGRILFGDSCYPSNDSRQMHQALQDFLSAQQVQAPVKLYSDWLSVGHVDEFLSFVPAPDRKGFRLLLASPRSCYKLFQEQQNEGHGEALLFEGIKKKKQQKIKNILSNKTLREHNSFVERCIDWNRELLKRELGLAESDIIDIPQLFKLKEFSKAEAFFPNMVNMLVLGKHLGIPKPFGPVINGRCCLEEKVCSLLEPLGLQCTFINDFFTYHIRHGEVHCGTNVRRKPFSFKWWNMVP", "test": "RFMS Human PAD4 Functional Assay 1", "type": "biochemical", "details": "RFMS assay 1; 5 nM hPAD4, 250 μM BAEE substrate, 50 μM calcium, 37° C.", "procedure,_shortened": "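Recombinant hPAD4 (5 nM) was preincubated with compound (top 50 μM, 0.5% DMSO) for 30 min at 37 °C, then reacted with 250 μM BAEE for 90 min at 37 °C in pH 7.5 HEPES buffer with 50 μM calcium and 5 μM TPEN. Product was derivatized with phenyl glyoxal and quantified by RapidFire MS.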"}
{"compound": "Cc1c(-c2cc3ccc(-c4ccc5[nH]ncc5c4)nc3n2CC2CC2)nn2cc(C(=O)N3CC4CCC3[C@@H]4N)ccc12", "note": "(stereo partly drawn) [Example 300, (7R)-2-{2-[1-(Cyclopropylmethyl)-6-(1H-indazol-5-yl)-1H-pyrrolo[2,3-b]pyridin-2-yl]-3-methylpyrazolo[1,5-a]pyridine-6-carbonyl}-2-azabicyclo[2.2.1]heptan-7-amine]", "pIC50": 7.00}
{"compound": "Cc1c(O)cccc1-c1ccc2cc(-c3nn4cc(C(=O)N5CC6CCC5[C@@H]6N)ccc4c3C)n(CC3CC3)c2n1", "note": "(stereo partly drawn) [Example 301, 3-(2-{6-[(7R)-7-Amino-2-azabicyclo[2.2.1]heptane-2-carbonyl]-3-methylpyrazolo[1,5-a]pyridin-2-yl}-1-(cyclopropylmethyl)-1H-pyrrolo[2,3-b]pyridin-6-yl)-2-methylphenol]", "pIC50": 7.52}
{"compound": "Cc1c(-c2cc3ccc(-c4ccccc4N4CCNC4=O)nc3n2CC2CC2)nn2cc(C(=O)N3CC4CCC3[C@@H]4N)ccc12", "note": "(stereo partly drawn) [Example 302, 1-[2-(2-{6-[(7R)-7-Amino-2-azabicyclo[2.2.1]heptane-2-carbonyl]-3-methylpyrazolo[1,5-a]pyridin-2-yl}-1-(cyclopropylmethyl)-1H-pyrrolo[2,3-b]pyridin-6-yl)phenyl]imidazolidin-2-one]", "pIC50": 6.92}
{"compound": "COc1cc(-c2ccc3cc(-c4nn5cc(C(=O)N6CC7CCC6[C@@H]7N)ccc5c4C)n(CC4CC4)c3n2)ccc1C(N)=O", "note": "(stereo partly drawn) [Example 303, 4-(2-{6-[(7R)-7-Amino-2-azabicyclo[2.2.1]heptane-2-carbonyl]-3-methylpyrazolo[1,5-a]pyridin-2-yl}-1-(cyclopropylmethyl)-1H-pyrrolo[2,3-b]pyridin-6-yl)-2-methoxybenzamide]", "pIC50": 6.62}
{"compound": "Cc1c(-c2cc3ccc(-c4ccc(N5CCCC5=O)cc4)nc3n2CC2CC2)nn2cc(C(=O)N3CC4CCC3[C@@H]4N)ccc12", "note": "(stereo partly drawn) [Example 304, 1-[4-(2-{6-[(7R)-7-Amino-2-azabicyclo[2.2.1]heptane-2-carbonyl]-3-methylpyrazolo[1,5-a]pyridin-2-yl}-1-(cyclopropylmethyl)-1H-pyrrolo[2,3-b]pyridin-6-yl)phenyl]pyrrolidin-2-one]", "pIC50": 8.00}
{"compound": "Cc1cc(C(N)=O)c(F)cc1-c1ccc2cc(-c3nn4cc(C(=O)N5CC6CCC5[C@@H]6N)ccc4c3C)n(CC3CC3)c2n1", "note": "(stereo partly drawn) [Example 305, 4-(2-{6-[(7R)-7-Amino-2-azabicyclo[2.2.1]heptane-2-carbonyl]-3-methylpyrazolo[1,5-a]pyridin-2-yl}-1-(cyclopropylmethyl)-1H-pyrrolo[2,3-b]pyridin-6-yl)-2-fluoro-5-methylbenzamide]", "pIC50": 7.40}
{"compound": "Cc1c(-c2cc3ccc(-c4ccc5cn[nH]c5c4F)nc3n2CC2CC2)nn2cc(C(=O)N3CC4CCC3[C@@H]4N)ccc12", "note": "(stereo partly drawn) [Example 306, (7R)-2-{2-[1-(Cyclopropylmethyl)-6-(7-fluoro-1H-indazol-6-yl)-1H-pyrrolo[2,3-b]pyridin-2-yl]-3-methylpyrazolo[1,5-a]pyridine-6-carbonyl}-2-azabicyclo[2.2.1]heptan-7-amine]", "pIC50": 7.52}
{"compound": "CNC(=O)c1ccc(-c2ccc3cc(-c4nn5cc(C(=O)N6CC7CCC6[C@@H]7N)ccc5c4C)n(CC4CC4)c3n2)cn1", "note": "(stereo partly drawn) [Example 307, 5-(2-{6-[(7R)-7-Amino-2-azabicyclo[2.2.1]heptane-2-carbonyl]-3-methylpyrazolo[1,5-a]pyridin-2-yl}-1-(cyclopropylmethyl)-1H-pyrrolo[2,3-b]pyridin-6-yl)-N-methylpyridine-2-carboxamide]", "pIC50": 7.15}
{"compound": "COC(=O)Nc1ccc(-c2ccc3cc(-c4nn5cc(C(=O)N6CC7CCC6[C@@H]7N)ccc5c4C)n(CC4CC4)c3n2)cn1", "note": "(stereo partly drawn) [Example 308, Methyl N-[5-(2-{6-[(7R)-7-amino-2-azabicyclo[2.2.1]heptane-2-carbonyl]-3-methylpyrazolo[1,5-a]pyridin-2-yl}-1-(cyclopropylmethyl)-1H-pyrrolo[2,3-b]pyridin-6-yl)pyridin-2-yl]carbamate]", "pIC50": 7.30}
{"compound": "Cc1c(-c2cc3ccc(-c4ccc5[nH]ncc5c4)nc3n2CC2CC2)nn2cc(C(=O)N3CCC[C@@H](N)C3)ccc12", "note": "[Example 309, (3R)-1-{2-[1-(Cyclopropylmethyl)-6-(1H-indazol-5-yl)-1H-pyrrolo[2,3-b]pyridin-2-yl]-3-methylpyrazolo[1,5-a]pyridine-6-carbonyl}piperidin-3-amine]", "pIC50": 6.40}
{"compound": "Cc1c(-c2cc3ccc(-c4ccc5cn[nH]c5c4)nc3n2CC2CC2)nn2cc(C(=O)N3CCC[C@@H](N)C3)ccc12", "note": "[Example 310, (3R)-1-{2-[1-(Cyclopropylmethyl)-6-(1H-indazol-6-yl)-1H-pyrrolo[2,3-b]pyridin-2-yl]-3-methylpyrazolo[1,5-a]pyridine-6-carbonyl}piperidin-3-amine]", "pIC50": 6.40}
{"compound": "Cc1c(-c2cc3ccc(-c4cccc5[nH]ncc45)nc3n2CC2CC2)nn2cc(C(=O)N3CCC[C@@H](N)C3)ccc12", "note": "[Example 311, (3R)-1-{2-[1-(Cyclopropylmethyl)-6-(1H-indazol-4-yl)-1H-pyrrolo[2,3-b]pyridin-2-yl]-3-methylpyrazolo[1,5-a]pyridine-6-carbonyl}piperidin-3-amine]", "pIC50": 6.68}
{"compound": "Cc1c(-c2ccc3cc(-c4nn5cc(C(=O)N6CCC[C@@H](N)C6)ccc5c4C)n(CC4CC4)c3n2)cc(F)c2[nH]c(=O)ccc12", "note": "[Example 312, 6-(2-{6-[(3R)-3-Aminopiperidine-1-carbonyl]-3-methylpyrazolo[1,5-a]pyridin-2-yl}-1-(cyclopropylmethyl)-1H-pyrrolo[2,3-b]pyridin-6-yl)-8-fluoro-5-methyl-1,2-dihydroquinolin-2-one]", "pIC50": 7.22}
{"compound": "Cc1c(-c2cc3ccc(-c4cccc(O)c4Cl)nc3n2CC2CC2)nn2cc(C(=O)N3CCC[C@@H](N)C3)ccc12", "note": "[Example 313, 3-(2-{6-[(3R)-3-Aminopiperidine-1-carbonyl]-3-methylpyrazolo[1,5-a]pyridin-2-yl}-1-(cyclopropylmethyl)-1H-pyrrolo[2,3-b]pyridin-6-yl)-2-chlorophenol]", "pIC50": 7.00}
{"compound": "Cc1c(-c2cc3ccc(-c4cccc(O)c4F)nc3n2CC2CC2)nn2cc(C(=O)N3CCC[C@@H](N)C3)ccc12", "note": "[Example 314, 3-(2-{6-[(3R)-3-Aminopiperidine-1-carbonyl]-3-methylpyrazolo[1,5-a]pyridin-2-yl}-1-(cyclopropylmethyl)-1H-pyrrolo[2,3-b]pyridin-6-yl)-2-fluorophenol]", "pIC50": 7.40}
{"compound": "Cc1c(-c2cc3ccc(-c4ccc5c(c4)C(=O)NC5)nc3n2CC2CC2)nn2cc(C(=O)N3CCC[C@@H](N)C3)ccc12", "note": "[Example 315]", "pIC50": 6.47}
{"compound": "Cc1cc(-c2ccc3cc(-c4nn5cc(C(=O)N6CCC[C@@H](N)C6)ccc5c4C)n(CC4CC4)c3n2)ccc1C(N)=O", "note": "[Example 316, 4-(2-{6-[(3R)-3-Aminopiperidine-1-carbonyl]-3-methylpyrazolo[1,5-a]pyridin-2-yl}-1-(cyclopropylmethyl)-1H-pyrrolo[2,3-b]pyridin-6-yl)-2-methylbenzamide]", "pIC50": 6.60}
{"compound": "Cc1c(-c2cc3ccc(-c4ccc5c(c4)CNC5=O)nc3n2CC2CC2)nn2cc(C(=O)N3CCC[C@@H](N)C3)ccc12", "note": "[Example 317, 5-(2-{6-[(3R)-3-Aminopiperidine-1-carbonyl]-3-methylpyrazolo[1,5-a]pyridin-2-yl}-1-(cyclopropylmethyl)-1H-pyrrolo[2,3-b]pyridin-6-yl)-2,3-dihydro-1H-isoindol-1-one]", "pIC50": 6.29}
{"compound": "Cc1c(-c2cc3ccc(N4CCOCC4)nc3n2CC2CC2)nn2cc(C(=O)N3CC4CCC3[C@@H]4N)ccc12", "note": "(stereo partly drawn) [Example 318, (7R)-2-{2-[1-(Cyclopropylmethyl)-6-(morpholin-4-yl)-1H-pyrrolo[2,3-b]pyridin-2-yl]-3-methylpyrazolo[1,5-a]pyridine-6-carbonyl}-2-azabicyclo[2.2.1]heptan-7-amine]", "pIC50": 6.51}
{"compound": "Cc1c(-c2cc3ccc(N4CCOCC4=O)nc3n2CC2CC2)nn2cc(C(=O)N3CC4CCC3[C@@H]4N)ccc12", "note": "(stereo partly drawn) [Example 319, 4-(2-{6-[(7R)-7-Amino-2-azabicyclo[2.2.1]heptane-2-carbonyl]-3-methylpyrazolo[1,5-a]pyridin-2-yl}-1-(cyclopropylmethyl)-1H-pyrrolo[2,3-b]pyridin-6-yl)morpholin-3-one]", "pIC50": 7.30}
{"compound": "Cc1c(-c2cc3ccc(N4CCC(S(C)(=O)=O)CC4)nc3n2CC2CC2)nn2cc(C(=O)N3CC4CCC3[C@@H]4N)ccc12", "note": "(stereo partly drawn) [Example 320, (7R)-2-{2-[1-(Cyclopropylmethyl)-6-(4-methanesulfonylpiperidin-1-yl)-1H-pyrrolo[2,3-b]pyridin-2-yl]-3-methylpyrazolo[1,5-a]pyridine-6-carbonyl}-2-azabicyclo[2.2.1]heptan-7-amine]", "pIC50": 6.82}
{"compound": "Cc1c(-c2cc3ccc(-c4ccc5cn[nH]c5c4)nc3n2CC2CC2)nn2cc(C(=O)N3C[C@H](N)C[C@@H](F)C3)ccc12", "note": "[Example 321, (3R,5R)-1-{2-[1-(Cyclopropylmethyl)-6-(1H-indazol-6-yl)-1H-pyrrolo[2,3-b]pyridin-2-yl]-3-methylpyrazolo[1,5-a]pyridine-6-carbonyl}-5-fluoropiperidin-3-amine]", "pIC50": 4.82}
{"compound": "Cc1c(-c2cc3ccc(-c4cccc5[nH]ncc45)nc3n2CC2CC2)nn2cc(C(=O)N3C[C@H](N)C[C@@H](F)C3)ccc12", "note": "[Example 322, (3R,5R)-1-{2-[1-(Cyclopropylmethyl)-6-(1H-indazol-4-yl)-1H-pyrrolo[2,3-b]pyridin-2-yl]-3-methylpyrazolo[1,5-a]pyridine-6-carbonyl}-5-fluoropiperidin-3-amine]", "pIC50": 6.30}
{"compound": "Cc1c(-c2cc3ccc(-c4ccc5[nH]ncc5c4)nc3n2CC2CC2)nn2cc(C(=O)N3C[C@H](N)C[C@@H](F)C3)ccc12", "note": "[Example 323, (3R,5R)-1-{2-[1-(Cyclopropylmethyl)-6-(1H-indazol-5-yl)-1H-pyrrolo[2,3-b]pyridin-2-yl]-3-methylpyrazolo[1,5-a]pyridine-6-carbonyl}-5-fluoropiperidin-3-amine]", "pIC50": 6.85}
